Tests used:
5-HT2A [1] = molecular target: T1, 5-HT2A (Homo sapiens, UniProt P28223); test: radioligand displacement, membranes; type: binding
T1 construct: gene HTR2A; human recombinant receptor; crude membrane fractions of transfected HEK293 or CHO cells
Source text: radioligand displacement, membranes on 5-HT2A

5-HT2A [2] = molecular target: T1, 5-HT2A; test: biochemical; set-up: species or system HEK293 or CHO; competitive radioligand binding on crude membranes, filtration and scintillation counting
Experimental: Eleven dilutions (5 × assay concentration) of the test and reference compounds (Table S1) were prepared in standard binding buffer (50 mM tris(hydroxymethyl)-aminomethane-HCl (Tris-HCl), 10 mM MgCl2, 1 mM ethylenediaminetetraacetate (EDTA), pH 7.4) by serial dilution: 0.05 nM, 0.5 nM, 1.5 nM, 5 nM, 15 nM, 50 nM, 150 nM, 500 nM, 1.5 μM, 5 μM, and 50 μM. The radioligand (Table S3) was diluted to five times the assay concentration in standard binding buffer. Aliquots ([…]) of the radioligand were dispensed into the wells of a 96-well plate containing […] of standard binding buffer. Triplicate aliquots ([…]) of the test and reference compound dilutions were then added. Finally, crude membrane fractions ([…]) of cells (HEK293 or CHO) expressing human recombinant receptors were dispensed into each well. A total of […] of the reaction mixtures was incubated at room temperature and shielded from light for 1.5 h, and was then harvested by rapid filtration onto Whatman GF/B glass fiber filters presoaked with 0.3% polyethyleneimine, by using a 96-well Brandel harvester (Gaithersburg, MD, USA). Four rapid washes were performed with chilled standard binding buffer (500 mL) to decrease nonspecific binding. Filters were placed in 6 mL scintillation tubes and allowed to dry overnight. The next day, 4-mL of EcoScint scintillation cocktail (National Diagnostics) was added to each tube. The tubes were capped, labeled, and counted by liquid scintillation counting. The filter mats were dried, and the scintillant was melted onto the filters, then the radioactivity retained on the filters was counted in a Microbeta scintillation counter. The IC50 values were obtained by using the Prism 4.0 program (GraphPad Software, La Jolla, CA, USA) and were converted into Ki values. Each compound was tested at least in triplicate. With each enantiomer (R)- or (S)-5d and 5e in hand, the optically active pyrimidine derivatives 4d–4e were synthesized following the same reaction sequences (Scheme 3). Finally, compounds 4d and 4e were assessed for their binding affinity to 5-HT2 receptor subtypes by radioligand binding assays. […] A further evaluation of these compounds for other 5-HT receptor subtypes was also performed and is provided in the supplementary data (Table S2). […] Considering the potencies and selectivities of 4, we can conclude that (R,R)-4e would be a viable candidate for a selective 5-HT2C modulator.

5-HT2C = molecular target: T2, 5-HT2C (Homo sapiens, UniProt P28335); test: [3H]mesulergine displacement, membranes; type: binding; details: pH […] MgCl2, room temperature; reference compound, may stem from the authors' earlier study (ref […])
T2 construct: gene HTR2C; human recombinant receptor; crude membrane fractions of transfected cells (CHO-K1; HEK293 or CHO)
T2 sequence (P28335 33-458): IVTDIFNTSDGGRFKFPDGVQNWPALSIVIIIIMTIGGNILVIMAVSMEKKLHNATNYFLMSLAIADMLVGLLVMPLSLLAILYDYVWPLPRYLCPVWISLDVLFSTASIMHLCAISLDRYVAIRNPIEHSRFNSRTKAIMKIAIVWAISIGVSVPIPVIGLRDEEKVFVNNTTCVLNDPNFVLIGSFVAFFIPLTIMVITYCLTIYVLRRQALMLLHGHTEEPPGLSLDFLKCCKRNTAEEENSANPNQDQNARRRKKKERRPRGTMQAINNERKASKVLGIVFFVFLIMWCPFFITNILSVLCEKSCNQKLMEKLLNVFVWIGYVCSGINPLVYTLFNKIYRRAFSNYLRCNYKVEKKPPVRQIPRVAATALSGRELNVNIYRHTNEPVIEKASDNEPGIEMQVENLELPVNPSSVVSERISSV
Source text: [3H]mesulergine displacement, membranes on 5-HT2C

T1 sequence (P28223 whole entry): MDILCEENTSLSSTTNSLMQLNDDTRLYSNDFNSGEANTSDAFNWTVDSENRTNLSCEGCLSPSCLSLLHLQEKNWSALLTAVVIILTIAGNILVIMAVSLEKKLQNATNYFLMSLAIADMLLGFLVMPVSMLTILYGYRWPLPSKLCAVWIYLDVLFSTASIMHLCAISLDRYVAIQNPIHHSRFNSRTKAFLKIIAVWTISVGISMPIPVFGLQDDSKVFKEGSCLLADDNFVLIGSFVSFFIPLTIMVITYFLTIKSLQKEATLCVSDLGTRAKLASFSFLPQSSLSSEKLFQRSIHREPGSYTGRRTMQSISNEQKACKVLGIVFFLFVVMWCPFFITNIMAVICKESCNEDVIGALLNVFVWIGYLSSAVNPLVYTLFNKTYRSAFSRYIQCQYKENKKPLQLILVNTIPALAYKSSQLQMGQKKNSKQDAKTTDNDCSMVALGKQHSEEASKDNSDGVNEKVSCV

SMILES	Ki (5-HT2A [1]) [µM]	inhibition at 10 µM (5-HT2A [2]) [%]	5-HT2A / %Binding (5-HT2A [1]; pH 7.4, 10 mM MgCl2, room temperature, single concentration, 10 μM) [%]	Ki (5-HT2C) [µM]
C[C@@H]1CNCCN1c1ncc(F)c(O[C@H](C)c2cccc(F)c2)n1 [(R,R)-4d, 5-Fluoro-4-((R)-1-(3-fluorophenyl)ethoxy)-2-((R)-2-methylpiperazin-1-yl)pyrimidine]	0.222	93.3		
C[C@@H]1CNCCN1c1ncc(F)c(O[C@H](C)c2ccc(F)cc2)n1 [(R,R)-4e, 5-Fluoro-4-((R)-1-(4-fluorophenyl)ethoxy)-2-((R)-2-methylpiperazin-1-yl)pyrimidine]			0.9	
C[C@H](Oc1nc(N2CCNC[C@H]2C)ncc1F)c1cccc(F)c1 [(S,R)-4d, 5-Fluoro-4-((S)-1-(3-fluorophenyl)ethoxy)-2-((R)-2-methylpiperazin-1-yl)pyrimidine]	0.475	82.4		
C[C@H](Oc1nc(N2CCNC[C@H]2C)ncc1F)c1ccc(F)cc1 [(S,R)-4e, 5-Fluoro-4-((S)-1-(4-fluorophenyl)ethoxy)-2-((R)-2-methylpiperazin-1-yl)pyrimidine]	1.02	64.8		
C[C@H](Cc1cccc(F)c1)Oc1nc(N2CCNC[C@H]2C)ncc1F [compound 3, pyrimidine analogue 3]	0.128	95.6		0.0007
